Laboratory results: PubChem BioAssay AID248 (DTP/NCI, 2004)
Several values for one entry are separate records, joined by “and”; a condition that tells them apart may be missing. Equal values may be shown once. Toxic doses and inconclusive results are not listed. Rule as the data show it: active = T/C of 150% or more; inactive = T/C below 125%.

Test system: L1210 leukemia ip in BDF1 mice, survival T/C
Test: NCI In Vivo Anticancer Drug Screen. Data for tumor model L1210 Leukemia (intraperitoneal) in B6D2F1 (BDF1) mice
Settings: endpoint: mean survival time, higher = longer survival
Outline: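 Antitumor effect is assessed in tumor-bearing animals. Survival in the compound arm is compared with a vehicle-dosed control arm and expressed as their quotient.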

[1] = dose: 100.0 mg/kg/injection, schedule: Q04DX003 (ip), vehicle: saline with Tween-80
[2] = dose: 200.0 mg/kg/injection, schedule: Q04DX003 (ip), vehicle: saline with Tween-80
[3] = dose: 25.0 mg/kg/injection, schedule: Q01DX009 (ip), vehicle: Klucel (hydroxypropylcellulose) (HPC)
[4] = dose: 50.0 mg/kg/injection, schedule: Q01DX009 (ip), vehicle: Klucel (hydroxypropylcellulose) (HPC)
[5] = dose: 100.0 mg/kg/injection, schedule: Q01DX009 (ip), vehicle: Klucel (hydroxypropylcellulose) (HPC)
[6] = dose: 400.0 mg/kg/injection, schedule: Q04DX003 (ip), vehicle: saline with Tween-80
[7] = dose: 100.0 mg/kg/injection, schedule: Q01DX009 (ip), vehicle: saline with Tween-80
[8] = dose: 200.0 mg/kg/injection, schedule: Q01DX009 (ip), vehicle: saline with Tween-80
[9] = dose: 400.0 mg/kg/injection, schedule: Q01DX009 (ip), vehicle: saline with Tween-80
[10] = dose: 100.0 mg/kg/injection, schedule: Q04DX002 (ip), vehicle: Klucel (hydroxypropylcellulose) (HPC)
[11] = dose: 100.0 mg/kg/injection, schedule: Q01DX001 (ip), vehicle: saline
[12] = dose: 200.0 mg/kg/injection, schedule: Q01DX001 (ip), vehicle: saline
[13] = dose: 100.0 mg/kg/injection, schedule: Q04DX003 (ip), vehicle: Klucel (hydroxypropylcellulose) (HPC)
[14] = dose: 200.0 mg/kg/injection, schedule: Q04DX003 (ip), vehicle: Klucel (hydroxypropylcellulose) (HPC)
[15] = dose: 100.0 mg/kg/injection, schedule: Q01DX001 (ip), vehicle: saline with Tween-80
[16] = dose: 200.0 mg/kg/injection, schedule: Q01DX001 (ip), vehicle: saline with Tween-80
[17] = dose: 400.0 mg/kg/injection, schedule: Q01DX001 (ip), vehicle: saline with Tween-80

Measured: T/C

COC(=O)C1=C(NC(=O)Nc2ccc([N+](=O)[O-])cc2)OC(C)(C)C1c1ccc(Cl)cc1 (centres undefined)
inactive: dose: 100.0 mg/kg/injection, schedule: Q04DX003 (ip), vehicle: acetone 92 % of control | dose: 200.0 mg/kg/injection, schedule: Q04DX003 (ip), vehicle: acetone 97 % of control | dose: 400.0 mg/kg/injection, schedule: Q04DX003 (ip), vehicle: acetone 97 % of control

OC(CC1=NNC(=S)NC1)(C(F)(F)F)C(F)(F)F
inactive: [1] 95 % of control | [2] 87 % of control

O=c1c(Br)c[nH]cc1Br
inactive: dose: 12.5 mg/kg/injection, schedule: Q01DX009 (ip), vehicle: Klucel (hydroxypropylcellulose) (HPC) 91 % of control | [3] 111 % of control | [4] 91 % of control | [5] 98 % of control

O=C(NC/C(Br)=C/Br)Nc1cccc2ccccc12
inactive: dose: 100.0 mg/kg/injection, schedule: Q04DX002 (ip), vehicle: saline with Tween-80 97 % of control | dose: 200.0 mg/kg/injection, schedule: Q04DX002 (ip), vehicle: saline with Tween-80 90 % of control | dose: 400.0 mg/kg/injection, schedule: Q04DX002 (ip), vehicle: saline with Tween-80 97 % of control

Nc1nc(CNc2ccc(Cl)cc2)nc(Nc2ccccc2)n1
inactive: [1] 93 % of control | [2] 89 % of control | [6] 89 % of control

O=[N+]([O-])c1cccn2nc(-c3ccccc3)nc12
inactive: dose: 100.0 mg/kg/injection, schedule: Q01DX001 (ip), vehicle: acetone 98 % of control | dose: 200.0 mg/kg/injection, schedule: Q01DX001 (ip), vehicle: acetone 98 % of control | dose: 400.0 mg/kg/injection, schedule: Q01DX001 (ip), vehicle: acetone 101 % of control

CCOC(=O)/C(=C\c1ccc2c(c1)OCO2)NC(=O)c1ccccc1
inactive: dose: 50.0 mg/kg/injection, schedule: Q01DX009 (ip), vehicle: saline 102 % of control | dose: 100.0 mg/kg/injection, schedule: Q01DX009 (ip), vehicle: saline 102 % of control | dose: 100.0 mg/kg/injection, schedule: Q04DX003 (ip), vehicle: saline 98 % of control | dose: 200.0 mg/kg/injection, schedule: Q01DX009 (ip), vehicle: saline 118 % of control | dose: 200.0 mg/kg/injection, schedule: Q04DX003 (ip), vehicle: saline 92 % of control | dose: 400.0 mg/kg/injection, schedule: Q01DX009 (ip), vehicle: saline 100 % of control | dose: 400.0 mg/kg/injection, schedule: Q04DX003 (ip), vehicle: saline 92 % of control

CC(=O)COc1cccc(Cl)c1Cl
inactive: [7] 98 % of control | [8] 95 % of control | [9] 101 % of control

Brc1cc(Br)c(I)c(Br)c1
inactive: [7] 102 % of control | [1] 96 % of control | [8] 101 % of control | [2] 108 % of control | [9] 101 % of control | [6] 103 % of control

O=C(Nc1cccc(C(=O)Nc2ccc(C3=NCCN3)cc2)c1)Nc1cccc(C(=O)Nc2ccc(C3=NCCN3)cc2)c1
inactive: dose: 15.0 mg/kg/injection, schedule: Q01DX Z (ip), vehicle: methylcellulose (MC) 94 % of control | dose: 30.0 mg/kg/injection, schedule: Q01DX Z (ip), vehicle: methylcellulose (MC) 105 % of control | dose: 60.0 mg/kg/injection, schedule: Q01DX Z (ip), vehicle: methylcellulose (MC) 100 % of control | dose: 120.0 mg/kg/injection, schedule: Q01DX Z (ip), vehicle: methylcellulose (MC) 102 % of control | dose: 125.0 mg/kg/injection, schedule: Q01DX Z (ip), vehicle: water 93 % of control | dose: 250.0 mg/kg/injection, schedule: Q01DX Z (ip), vehicle: water 102 % of control | dose: 500.0 mg/kg/injection, schedule: Q01DX Z (ip), vehicle: water 101 % of control

OCCOc1ccc(Br)cc1
inactive: [10] 92 % of control | dose: 200.0 mg/kg/injection, schedule: Q04DX002 (ip), vehicle: Klucel (hydroxypropylcellulose) (HPC) 95 % of control | dose: 400.0 mg/kg/injection, schedule: Q04DX002 (ip), vehicle: Klucel (hydroxypropylcellulose) (HPC) 92 % of control

Cc1c2c(cc3c1OCN(C1CCCCC1)C3)CN(C1CCCCC1)CO2
inactive: [11] 98 % of control | [12] 90 % of control

NS(=O)(=O)c1ccc(N=Nc2ccc([As](=O)(O)O)cc2)cc1
inactive: [11] 98 % of control | [12] 98 % of control | dose: 400.0 mg/kg/injection, schedule: Q01DX001 (ip), vehicle: saline 98 % of control

O=C(O)c1cc2cc(Cl)ccc2oc1=O
inactive: dose: 100.0 mg/kg/injection, schedule: Q01DX001 (ip), vehicle: carboxymethylcellulose (CMC) 92 % of control | dose: 200.0 mg/kg/injection, schedule: Q01DX001 (ip), vehicle: carboxymethylcellulose (CMC) 92 % of control

O=[N+]([O-])c1ccc(-c2cnc(Nc3ccc(Cc4ccc(Nc5ncc(-c6ccc([N+](=O)[O-])cc6)s5)c(Cl)c4)cc3Cl)s2)cc1
inactive: [13] 98 % of control | [14] 106 % of control | dose: 400.0 mg/kg/injection, schedule: Q04DX003 (ip), vehicle: Klucel (hydroxypropylcellulose) (HPC) 98 % of control

COc1ccc(Cl)cc1NS(=O)(=O)c1ccc(Cl)c([N+](=O)[O-])c1
inactive: [5] 98 % of control | dose: 200.0 mg/kg/injection, schedule: Q01DX009 (ip), vehicle: Klucel (hydroxypropylcellulose) (HPC) 109 % of control | dose: 400.0 mg/kg/injection, schedule: Q01DX009 (ip), vehicle: Klucel (hydroxypropylcellulose) (HPC) 98 % of control

Clc1ccc(NC2=NCCCS2)c2ccccc12
inactive: [3] 98 % of control | [4] 102 % of control | [5] 94 % of control and 92 % of control | [13] 97 % of control | [14] 90 % of control

CCCCCCCCCCCCCCCC(=O)OCCCCCCCCCCCCC
inactive: [1] 95 % of control | [2] 90 % of control | [6] 86 % of control

O=C1CCC2=C(CCCCCCCCCC2)N1c1ccccc1
inactive: [1] 105 % of control | [2] 105 % of control | [6] 94 % of control

O=S(=O)(c1ccccc1)N1C=CC=CC=C1
inactive: dose: 25.0 mg/kg/injection, schedule: Q04DX002 (ip), vehicle: Klucel (hydroxypropylcellulose) (HPC) 102 % of control | dose: 50.0 mg/kg/injection, schedule: Q04DX002 (ip), vehicle: Klucel (hydroxypropylcellulose) (HPC) 102 % of control | [10] 105 % of control

Cc1ccc(NC(=S)NC(=O)c2cccc([N+](=O)[O-])c2)cc1C
inactive: dose: 50.0 mg/kg/injection, schedule: Q01DX009 (ip), vehicle: saline with Tween-80 97 % of control and 112 % of control | [15] 92 % of control | dose: 100.0 mg/kg/injection, schedule: Q04DX002 (ip), vehicle: alcohol 93 % of control and 103 % of control | [1] 95 % of control | [16] 101 % of control | dose: 200.0 mg/kg/injection, schedule: Q04DX002 (ip), vehicle: alcohol 93 % of control and 103 % of control | [2] 94 % of control | [17] 98 % of control | dose: 400.0 mg/kg/injection, schedule: Q04DX002 (ip), vehicle: alcohol 93 % of control and 98 % of control | [6] 106 % of control

O=C(c1ccco1)c1cc(Cl)c(Cl)cc1Cl
inactive: [15] 100 % of control | [16] 95 % of control | [17] 98 % of control
